# Source: patent publication US20060165731A1, “Vaccines” (British Technology Group Ltd., priority 1986, published 2006)
# Experiments:
# Assay type in all cases: in vivo, Eimeria (in Cobb broiler chickens)
# [1] = tested on: seven homologous or seven heterologous strains of each of the seven species of Eimeria; assay: Vaccine trial in Cobb broiler chickens, overall (homologous and heterologous challenge)
# Excerpt: (§1) The vaccine of Example 3 was used in a trial conducted on 4,480 Cobb broiler chickens kept in floor pens. The concentration of xanthan gum in the vaccine was adjusted so that administration of 140 doses of vaccine to each drinking vessel provided a final xanthan gum concentration of 0.03%. The trial was designed to compare the performance of birds vaccinated with live attenuated coccidiosis vaccine of the invention and birds fed the coccidiostat, monensin, in the face of a challenge with seven homologous or seven heterologous strains of each of the seven species of Eimeria. The heterologous strains were chosen on the basis that they were either thought to be more pathogenic than the homologous ones or antigenically distinct.
# (§2) Birds were penned in groups of 140. Four pens were allocated to each treatment and two pens were allocated to each control group. […] The allocation of pens to treatment was randomised throughout the broiler house. The design of the trial was as follows:
# The vaccine was administered via the drinking water. The birds were fed a ration based on a commercial formulation which included the antibiotic growth promoter avoparcin at 10 ppm. […]
# Liveweights and cumulative feed intakes were measured on days 30, 37 and 49. Feed conversion ratios were calculated by dividing the feed intake by the gain in liveweight from day 1. […] Mean lesion scores were calculated.
# [2] = tested on: seven homologous strains of each of the seven species of Eimeria; assay: Vaccine trial in Cobb broiler chickens, homologous challenge
# Excerpt: as §1, §2
# (§3) The vaccine was administered via the drinking water. The birds were fed a ration based on a commercial formulation which included the antibiotic growth promoter avoparcin at 10 ppm. The anticoccidial drugs were administered in the feed.
# (§4) It should be noted that, in order to prevent infection by wild Eimeria strains, and consequent development of immunity, the two control groups were fed robenidine (30 ppm) for 28 days. One group received a heterologous challenge and the other received a homologous challenge.
# (§5) All birds received an individual oral challenge administered by inoculation into the crop on day 31. The numbers of oocysts of each species in the challenge doses were as follows:—
# (§6) Liveweights and cumulative feed intakes were measured on days 30, 37 and 49. Feed conversion ratios were calculated by dividing the feed intake by the gain in liveweight from day 1. Counts of oocysts in the litter were made for each pen at weekly intervals. On day 37, a sample of 5 birds from each pen (total 160) was culled and coccidiosis lesion scores were estimated. Scores were made on a scale of 0 to 3.5 in ascending severity of the lesions symptomatic of infection with E. acervulina, E. brunetti, E. maxima/necatrix (grouped together because they are difficult to distinguish) and E. tenella. Mean lesion scores were calculated.
# [3] = tested on: seven heterologous strains of each of the seven species of Eimeria; assay: Vaccine trial in Cobb broiler chickens, heterologous challenge
# Excerpt: as §1, §2, §3, §4, §5, §6
compound,measurement,setting,value
"CC[C@@]1([C@@H]2O[C@@H]([C@H]3O[C@@](O)(CO)[C@H](C)C[C@@H]3C)C[C@@H]2C)CC[C@H]([C@]2(C)CC[C@]3(C[C@H](O)[C@@H](C)[C@@H]([C@@H](C)[C@@H](OC)[C@H](C)C(=O)O)O3)O2)O1 [Monensin, monensin]",Lesion scores after either homologous or heterologous challenge,[1]; compared with controls,lower lesion scores
same,"Protecting against coccidial challenge (performance of the birds, overall)",[1]; vaccine compared with monensin,equally effective
same,Mean Lesion Score E. acervulina,"[2]; Homologous challenge, day 37, scale of 0 to 3.5, control 0.2",0
same,Mean Lesion Score E. brunetti,"[2]; Homologous challenge, day 37, scale of 0 to 3.5, control 0.40",0.03
same,Mean Lesion Score E. maxima/necatrix,"[2]; Homologous challenge, day 37, scale of 0 to 3.5, control 1.25",0.13
same,Mean Lesion Score E. tenella,"[2]; Homologous challenge, day 37, scale of 0 to 3.5, control 2.25",0.20
same,LIVEWEIGHTS,"[2]; day 49, Homologous Challenge on day 31, control 2225",2489 g/bird
same,Mean Lesion Score E. acervulina,"[3]; Heterologous challenge, day 37, scale of 0 to 3.5, control 0.30",0.10
same,Mean Lesion Score E. brunetti,"[3]; Heterologous challenge, day 37, scale of 0 to 3.5, control 0.70",0
same,Mean Lesion Score E. maxima/necatrix,"[3]; Heterologous challenge, day 37, scale of 0 to 3.5, control 2.00",0.95
same,Mean Lesion Score E. tenella,"[3]; Heterologous challenge, day 37, scale of 0 to 3.5, control 2.65",1.53
same,"Counts of oocysts in the litter, pens of monensin treated birds relative to pens of vaccinated birds","[3]; after challenge with heterologous strains, on average, very high pen to pen variation",two or three times higher
same,LIVEWEIGHTS,"[3]; day 49, Heterologous Challenge on day 31, control 2197",2407 g/bird
same,Lesion scores for heterologous E. maxima/necatrix,[3]; in each case lower than the controls,Slightly elevated scores
